Experimental data as given in article PMC8667043, “First-in-Class Inhibitors of the Ribosomal Oxygenase MINA53” (Journal of Medicinal Chemistry, 2021).
Entries after “also recorded” stand apart in the source; their conditions may differ. Read-outs that look alike come from different tables or passages of the source. Values belong to the compound of their own block, whether it stands above or below them.

Columns and labels:
NO66 = molecular target: T1, NO66 (Homo sapiens, UniProt Q9H6W3); assay: NO66 MS (RapidFire) hydroxylation inhibition assay, Rpl8 peptide; assay type: biochemical
T1 construct: histidine tag (TEV-cleavable) (cleaved yes); made in house; host or cells: E. coli BL21(DE3)-R3-pRARE2
T1 sequence (Q9H6W3 183-641): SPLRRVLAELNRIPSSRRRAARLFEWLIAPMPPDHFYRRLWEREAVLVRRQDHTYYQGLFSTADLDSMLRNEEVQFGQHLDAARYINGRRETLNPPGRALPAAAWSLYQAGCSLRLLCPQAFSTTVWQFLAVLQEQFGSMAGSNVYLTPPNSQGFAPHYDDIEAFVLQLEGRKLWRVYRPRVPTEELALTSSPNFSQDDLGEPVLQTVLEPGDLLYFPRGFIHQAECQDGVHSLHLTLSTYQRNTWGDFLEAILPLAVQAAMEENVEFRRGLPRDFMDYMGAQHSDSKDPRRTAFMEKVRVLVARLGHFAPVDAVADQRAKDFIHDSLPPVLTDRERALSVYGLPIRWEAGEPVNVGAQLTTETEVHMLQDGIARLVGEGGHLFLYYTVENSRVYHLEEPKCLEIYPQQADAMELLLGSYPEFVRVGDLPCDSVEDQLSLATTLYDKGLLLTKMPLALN

MINA53 = molecular target: T2, MINA53 (Homo sapiens, UniProt Q8IUF8); assay: MINA53 MS (RapidFire) hydroxylation inhibition assay, Rpl27a peptide; assay type: biochemical
T2 construct: MINA53 (Met1-Val464 and Ala26-Val464); histidine tag (TEV-cleavable) (cleaved yes); made in house; host or cells: E. coli BL21(DE3)-R3-pRARE2

PCAF = molecular target: T3, PCAF (Homo sapiens, UniProt Q92831); assay: HotSpot KAT assay; assay type: biochemical; conditions: means ± SD of three experiments, read-out: Residual Enzymatic Activity (%) PCAF
T3 construct: purchased Reaction Biology Corporation, Malvern, PA, USA
Method: (§1) The ef fects of 1-13 on th e histone lysine acetyltr a nsferas e activity (KAT ) o f p300 and PCAF were
(§2) determined using the HotSpot KAT assay ( Reaction Biology Corporation, Malvern, PA, USA)
(§3) according to the supplier’s procedure. In brief, recombinant form s of catal ytic domains of PCAF
(§4) NaCl, 0.1 mM EDTA, 1 mM DTT, 1 mM PMSF, 1% (v/v) DMSO) fo r 1 h at 30 °C in the presenc e
(§5) or absence of various concentrations of the inhibitors. Histone H3 acetyl ation was assessed by
(§6) liquid scintillation counting using a Tri-Carb 2800TR Liquid Scintillation Analyzer
(§7) (PerkinElmer). Assays at fixed con centration doses were performed in triplicate and analyzed
(§8) using Excel and GraphPad Prism 6.0 software (GraphPad Software Inc., San Diego, CA).

p300 = molecular target: T4, p300 (Homo sapiens, UniProt Q09472); assay: HotSpot KAT assay; assay type: biochemical; conditions: read-out: Residual Enzymatic Activity (%) p300
T4 construct: purchased Reaction Biology Corporation, Malvern, PA, USA
T4 sequence (Q09472 1284-1673): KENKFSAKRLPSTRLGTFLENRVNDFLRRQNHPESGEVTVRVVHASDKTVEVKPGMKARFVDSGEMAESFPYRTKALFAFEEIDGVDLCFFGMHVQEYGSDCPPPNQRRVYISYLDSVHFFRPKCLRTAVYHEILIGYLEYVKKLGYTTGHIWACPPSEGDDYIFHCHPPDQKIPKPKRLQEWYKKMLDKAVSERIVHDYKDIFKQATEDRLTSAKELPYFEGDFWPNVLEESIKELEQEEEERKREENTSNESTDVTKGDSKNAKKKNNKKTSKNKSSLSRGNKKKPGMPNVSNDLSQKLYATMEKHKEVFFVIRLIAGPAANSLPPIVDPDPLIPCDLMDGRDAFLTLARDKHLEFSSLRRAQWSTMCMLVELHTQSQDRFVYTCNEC
Method: as §1, §2, §3, §4, §5, §6, §7, §8

HT-29 colon carcinoma = assay: MTT cell viability assay; assay type: cell-based, human; conditions: 72, 96, 120 h, 10 to 100 μM, 10′ to a similar extent as 10
Method: (§9) Human commercially available established cancer cell lines HT-29 colon carcinoma (ATCC, HTB-38), U-87MG glioblastoma (ATCC, HTB-14), and MNK-45 gastric cancer (a gift from Dr. M. Broggini, Mario Negri Institute) were cultured in RPMI medium (Euroclone, Milan, IT) supplemented with 10% inactivated fetal bovine serum (HyClone, Thermo Scientific, South Logan, UT), 1% L-glutamine (Euroclone), and 100 μg/mL penicillin/streptomycin (Euroclone). HEK293T and HeLa cells were cultured in Dulbecco’s Modified Eagle Medium (DMEM, Gibco) supplemented with 10% (v/v) fetal bovine serum (FBS, Sigma) and 100 international units/mL (IU/mL) penicillin and 100 μg/mL streptomycin (Gibco). The cells were routinely tested for mycoplasma contamination and STR-authenticated.
(§10) Twenty-four hours following seeding, exponentially growing cells were treated with the different compounds at concentrations ranging from 10 to 100 μM for 72–120 h. Aqueous DMSO (0.5%, v/v) was used as a control (untreated). Cell viability was determined by the 3-(4,5-dimethylthiazol-2-yl)-2,5-diphenyltetrazolium bromide (MTT) colorimetric assay (Sigma-Aldrich). In summary, exponentially growing cancer cells were seeded in sextuplicate in 96-well culture plates (1.5 × 10^3 cells/well). After 24 h, the compounds were added at concentrations ranging from 10 to 100 μM. The effect of compounds on cancer cell proliferation was assessed by measuring the MTT dye absorbance of the cells as reported.[52] For combination treatments, the cells were treated with each of three compounds, either alone or in combination with doxorubicin. In particular, U-87MG cells were treated with doxorubicin alone or in combination with different MINA53 inhibitors for 24 h. The effect of different compounds or combinations (drug concentration ratio 1:20, doxorubicin: compound) on U-87MG cancer cell viability was assessed by measuring the MTT dye absorbance of cells. The interaction between doxorubicin (Doxo) and different compounds was evaluated based on the combination index (CI) using the CI equation through CalcuSyn software (Biosoft, Cambridge, U.K.). Synergism CI < 0.9, additivity 0.9 < CI < 1.1, antagonism CI > 1.1.

U-87MG malignant glioma = assay: MTT cell viability assay; assay type: cell-based, human; conditions: 72, 96, 120 h, 10 to 100 μM, 10′ to a similar extent as 10
Method: as §9, §10

MNK-45 gastric carcinoma = assay: MTT cell viability assay; assay type: cell-based, human; conditions: 72, 96, 120 h, 10 to 100 μM, 10′ to a similar extent as 10
Method: as §9, §10

U-87MG cells = assay: MTT cell viability, alone or in combination with doxorubicin; combination index; assay type: cell-based, human; conditions: 24 h
Method: as §10

[1] = NO66 (Ser183-Asn641), means ± 95% confidence, n = 3, read-out: IC50 value, NO66 (assay validation, Figure S7)
[2] = Table S12, read-out: NO66 IC50 (Table S12)
[3] = MINA53 (Met1-Val464), means ± 95% confidence, n = 3, read-out: IC50 value, MINA53 (assay validation, Figure S7)

T2 sequence (Q8IUF8 1-464 isoform Q8IUF8-4): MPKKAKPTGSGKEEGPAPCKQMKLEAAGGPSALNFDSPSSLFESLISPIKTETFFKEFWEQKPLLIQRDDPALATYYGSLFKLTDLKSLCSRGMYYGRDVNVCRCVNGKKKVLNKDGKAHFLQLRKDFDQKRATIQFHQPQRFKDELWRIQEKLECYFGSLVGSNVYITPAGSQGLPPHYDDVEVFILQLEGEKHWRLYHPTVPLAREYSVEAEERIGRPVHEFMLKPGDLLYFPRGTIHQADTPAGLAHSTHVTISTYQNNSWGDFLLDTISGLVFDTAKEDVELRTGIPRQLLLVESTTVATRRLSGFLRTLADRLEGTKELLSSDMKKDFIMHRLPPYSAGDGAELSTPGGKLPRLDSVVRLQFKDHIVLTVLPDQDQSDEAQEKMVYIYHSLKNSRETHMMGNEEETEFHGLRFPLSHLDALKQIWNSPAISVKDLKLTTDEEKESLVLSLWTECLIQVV
T3 sequence (Q92831 492-658): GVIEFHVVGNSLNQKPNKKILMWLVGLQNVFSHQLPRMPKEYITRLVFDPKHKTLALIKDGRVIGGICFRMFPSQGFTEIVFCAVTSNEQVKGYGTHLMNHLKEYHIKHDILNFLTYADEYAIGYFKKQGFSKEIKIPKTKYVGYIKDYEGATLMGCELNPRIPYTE

SMILES: O=C(O)c1ccnc(C(=O)O)c1 [2,4-PDCA, pyridine-2,4-dicarboxylate, reference compound]
IC50 (NO66; [1]): 0.11 µM | IC50 (NO66; [2]): 0.168 µM

SMILES: CCCCCCCCCCCCCCCc1cccc(O)c1C(=O)O [Anacardic Acid (AA), reference compound]
remaining activity at 100 µM (PCAF): 4.7 ± 0.3% | remaining activity at 100 µM (p300): 0.9 ± 0.01%

SMILES: COC(=O)c1cnc(SCCCc2ccccc2)[nH]c1=O [10′, Methyl 2-((3-phenylpropyl)thio)-3,4-dihydro-4-oxopyrimidine-5-carboxylate]
IC50 (NO66; [2]): 20.1 µM | effect on cell viability, HT-29 (HT-29 colon carcinoma): reduced the cell viability | effect on cell viability, U-87MG (U-87MG malignant glioma): reduced the cell viability | effect on cell viability, MNK-45 (MNK-45 gastric carcinoma): reduced the cell viability | IC50 (MINA53; Table S12, read-out: MINA53 IC50 (Table S12)): > 100 µM

SMILES: COc1cccc2c1C(=O)c1c(O)c3c(c(O)c1C2=O)C[C@@](O)(C(=O)CO)C[C@@H]3O[C@H]1C[C@H](N)[C@H](O)[C@H](C)O1 [doxorubicin, reference compound]
cell viability, single compound treatment (U-87MG cells): reduced cell viability in a dose-dependent manner

SMILES: O=C(O)CCNc1cc(N2CCc3ccccc3CC2)nc(-c2ccccn2)n1 [GSK-J1, reference compound]
inhibition of NO66 at 100 μM (NO66; at 100 μM): did not show significant inhibition | inhibition at 100 µM (NO66; read-out: inhibition of NO66 at 100 μM): 30% | inhibition of MINA53 at 100 μM (MINA53; at 100 μM): did not show significant inhibition; also recorded: No inhibition

Results, then the compound that gave them:

IC50 (NO66; [1]): 3.5 µM | IC50 (MINA53; [3]): 1.8 µM
SMILES: O=C(O)CNC(=O)C(=O)O [NOG, N-oxalylglycine, reference compound]

IC50 (NO66; [1]): 38.5 µM | IC50 (MINA53; [3]): 102 µM
SMILES: O=C(O)c1ccc(O)c2ncccc12 [IOX-1, reference compound]
